Measurements reported in PubChem BioAssay AID2060905 (Molecular Pharmacology Branch, DTP, NCI, 2025).

Test system: 282377-053-R-J1-PDC complex spheroid viability
Experiment: Anticancer human tumor 282377-053-R-J1-PDC patient-derived colon adenocarcinoma cell line growth inhibition [RAS]
Details: for IC50: curve of first compound; for viability, T/C: stronger effect = lower value; active = viability on the fitted dose curve at most 10% of control; inactive = the rest
Description: RAS pathway inhibitors in Combinations in Complex Spheroids
A high-throughput screen of multi-cell type tumor spheroids was designed to identify active combinations of RAS pathway inhibitors and targeted small molecules. Complex spheroids include a stromal component modeled by human endothelial cells (HUVEC) and fibroblasts modeled by human mesenchymal stem cells (MSCs). The concentration ranges selected for each drug and investigational agent were based upon clinically achievable concentrations if the clinical Cmax of the agent was known.
Compounds. The drugs and investigational agents: abemaciclib (NSC768073), cobimetinib (NSC768068), divarasib (GDC6063, NSC841802), docetaxel (NSC628503), GDC-1971 (RLY-1971, NSC841576), gemcitabine (NSC613327), inavolisib (NSC800729), ipatasertib (NSC767898), KB-0742 (NSC834161), MRTX-1133 (NSC836407), osimertinib (NSC779217), RMC-4630 (NSC839698), RMC-6236 (NSC851965), RMC-6291 (NSC852671), Ro-3306 (NSC812927), sapanisertib (NSC764658), SN-38 (NSC673596), staurosporine (NSC755774), SY5609 (NSC837396), and tovorafenib (DAY101, NSC766906), were obtained from the National Cancer Institute (NCI) Developmental Therapeutics Program Chemical Repository. The FDA-approved anticancer drug set is available from the NCI Developmental Therapeutics Program. […] The stock solutions were prepared in dimethyl sulfoxide (DMSO, Sigma-Aldrich, St. Louis, MO, cat. D2650) at 800-fold the tested concentration and stored at -70 degrees C prior to their use. All drugs and investigational agents were tested over a range starting from a high concentration at or near the clinical Cmax and decreasing in half-log increments. If the clinical Cmax for an agent had not been determined, the highest concentration tested was 10 microM.
Cell Culture. All cells were maintained in an incubator at 37 degrees C and 5% CO2 with 95% humidity. The PDC lines were cultured according to standard operating procedures established by the NCI PDMR. All PDCs were thawed and cultured in Matrigel-coated flasks prepared with a working solution of 1X Ham's F-12 nutrient mix, without supplementation (Invitrogen, Waltham, MA, cat. 11765054), 100 U/mL penicillin-streptomycin (Invitrogen, cat. 15140122), and 2.5% Matrigel (Corning Inc., Corning, NY, cat. 354248) for the first three passages. The 362531-283-R-J2-PDC and 782815-120-R-J1-PDC lines were cultured in 6C/Colon 1B media, which includes advanced DMEM/F-12 (Thermo Fisher Scientific, cat. 12634028), 10 mM HEPES (Thermo Fisher Scientific, cat. 15630080), 1X GlutaMAX supplement (Thermo Fisher Scientific, cat. 35050061), 0.1 mg/mL primocin (InvivoGen, San Diego, CA, cat. ant-pm-2), 10% defined fetal bovine serum, heat inactivated (HyClone Laboratories Inc., Logan, UT, cat. SH30070.03HI), 50% L-WRN conditioned media (ATCC, cat. CRL-3276), 1.25 mM N-Acetyl-L-cysteine (Sigma-Aldrich, cat. A9165), 10 mM nicotinamide (Sigma-Aldrich, cat. N0636), 1X B-27 supplement (Thermo Fisher Scientific, cat. 17504044), 1X N-2 supplement (Thermo Fisher Scientific, cat. 17502048), 50 ng/mL human EGF (Thermo Fisher Scientific, cat. PHG0311), and 10 microM Y-27632 dihydrochloride (Tocris Bioscience, cat. 1254). The K12877-001-R-J1-PDC line was cultured in 6I media, which includes all 6C/Colon 1B media plus 10 ng/mL human FGF-10 (PeproTech, cat. 100-26), 1 ng/mL human FGF-2 (PeproTech, cat. 100-18B), 1 µM prostaglandin E2 (Tocris Bioscience, cat. 2296), […] hydrocortisone (Sigma-Aldrich, cat. H4001), and […] bovine insulin (Sigma-Aldrich, cat. I6634). The K86415-001-R-J1-PDC line was cultured in 6D media, which includes all 6C/Colon 1B media components minus the L-WRN conditioned media. The 485176-168-R4-J1-PDC was cultured in PANC media, which includes all 6C/Colon 1B media plus 100 ng/mL human FGF-10 (PeproTech, cat. 100-26), 500 nM SB-431542 (Selleckchem, cat. S1067), and 10 nM gastrin (Tocris Bioscience, cat. 3006). […]
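Note: spheroids exposed to agents for seven days before readout.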
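Throughout, for viability, T/C: luminescence viability as percent of DMSO vehicle control wells.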

CC(Nc1ccc2c(c1)OCCn1cc(N3C(=O)OCC3C(F)F)nc1-2)C(N)=O (configuration not stated) + C#Cc1c(F)ccc2cc(O)cc(-c3ncc4c(N5CC6CCC(C5)N6)nc(OCC56CCCN5CC(F)C6)nc4c3F)c12
inactive: viability, T/C (second compound 0.0316 µM, first compound 0.0316 µM) 109% | viability, T/C (second compound 0.0316 µM, first compound 0.1 µM) 84.6% | viability, T/C (second compound 0.0316 µM, first compound 0.316 µM) 88.8% | viability, T/C (second compound 0.0316 µM, first compound 1 µM) 96% | viability, T/C (second compound 0.0316 µM, first compound 3.16 µM) 90.2% | viability, T/C (second compound 0.0316 µM, first compound 10 µM) 72.8% | viability, T/C (second compound 0.1 µM, first compound 0.0316 µM) 101% | viability, T/C (second compound 0.1 µM, first compound 0.1 µM) 85.7% | viability, T/C (second compound 0.1 µM, first compound 0.316 µM) 93.1% | viability, T/C (second compound 0.1 µM, first compound 1 µM) 97.3% | viability, T/C (second compound 0.1 µM, first compound 3.16 µM) 91.1% | viability, T/C (second compound 0.1 µM, first compound 10 µM) 72.6% | viability, T/C (second compound 0.316 µM, first compound 0.0316 µM) 131% | viability, T/C (second compound 0.316 µM, first compound 0.1 µM) 92.7% | viability, T/C (second compound 0.316 µM, first compound 0.316 µM) 78.2% | viability, T/C (second compound 0.316 µM, first compound 1 µM) 104% | viability, T/C (second compound 0.316 µM, first compound 3.16 µM) 74.7% | viability, T/C (second compound 0.316 µM, first compound 10 µM) 96.1% | viability, T/C (second compound 1 µM, first compound 0.0316 µM) 95.7% | viability, T/C (second compound 1 µM, first compound 0.1 µM) 97.8% | viability, T/C (second compound 1 µM, first compound 0.316 µM) 98.7% | viability, T/C (second compound 1 µM, first compound 1 µM) 100% | viability, T/C (second compound 1 µM, first compound 3.16 µM) 88.5% | viability, T/C (second compound 1 µM, first compound 10 µM) 93.3% | viability, T/C (second compound 3.16 µM, first compound 0.0316 µM) 90.5% | viability, T/C (second compound 3.16 µM, first compound 0.1 µM) 88.8% | viability, T/C (second compound 3.16 µM, first compound 0.316 µM) 88.3% | viability, T/C (second compound 3.16 µM, first compound 1 µM) 77.5% | viability, T/C (second compound 3.16 µM, first compound 3.16 µM) 76.6% | viability, T/C (second compound 3.16 µM, first compound 10 µM) 76.9% | viability, T/C (second compound 10 µM, first compound 0.0316 µM) 102% | viability, T/C (second compound 10 µM, first compound 0.1 µM) 101% | viability, T/C (second compound 10 µM, first compound 0.316 µM) 97% | viability, T/C (second compound 10 µM, first compound 1 µM) 81.2% | viability, T/C (second compound 10 µM, first compound 3.16 µM) 90% | viability, T/C (second compound 10 µM, first compound 10 µM) 78.5%
> 10 µM: IC50 (second compound 0.0316 µM) | IC50 (second compound 0.1 µM) | IC50 (second compound 0.316 µM) | IC50 (second compound 1 µM) | IC50 (second compound 3.16 µM) | IC50 (second compound 10 µM)
